# Experimental data from ChEMBL document CHEMBL1201862, “PubChem BioAssay data set” (2004).
#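 Interpolation was linear, between the two tested concentrations surrounding the appropriate level; five concentrations were tested over 48 hours in 96-well plates. GI50 is the concentration that inhibits growth by half.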 Active and inactive are the calls of the source. Rule as the data show it: active = GI50 up to about 1.1 µM and inactive = higher.
# Columns and labels:
# Experiment in all cases: NCI-60 cell line screen, 48 h
# 786-0 = tested on: 786-0
# A549 = tested on: A549
# CAKI-1 = tested on: CAKI-1
# CCRF-CEM = tested on: CCRF-CEM
# COLO 205 = tested on: COLO 205
# DU-145 = tested on: DU-145
# EKVX = tested on: EKVX
# HCC 2998 = tested on: HCC 2998
# HCT-15 = tested on: HCT-15
# HL-60 = tested on: HL-60
# HOP-62 = tested on: HOP-62
# HOP-92 = tested on: HOP-92
# HT-29 = tested on: HT-29
# IGROV-1 = tested on: IGROV-1
# K562 = tested on: K562
# KM12 = tested on: KM12
# LOX IMVI = tested on: LOX IMVI
# M14 = tested on: M14
# MCF7 = tested on: MCF7
# MDA-MB-231 = tested on: MDA-MB-231
# MDA-MB-435 = tested on: MDA-MB-435
# MDA-N = tested on: MDA-N
# MOLT-4 = tested on: MOLT-4
# Malme-3M = tested on: Malme-3M
# NCI-H23 = tested on: NCI-H23
# OVCAR-4 = tested on: OVCAR-4
# OVCAR-8 = tested on: OVCAR-8
# PC-3 = tested on: PC-3
# RPMI-8226 = tested on: RPMI-8226
# RXF 393 = tested on: RXF 393
# SF-268 = tested on: SF-268
# SF-295 = tested on: SF-295
# SK-MEL-28 = tested on: SK-MEL-28
# SK-MEL-5 = tested on: SK-MEL-5
# SK-OV-3 = tested on: SK-OV-3
# SN12C = tested on: SN12C
# SNB-75 = tested on: SNB-75
# SR = tested on: SR
# SW-620 = tested on: SW-620
# T47D = tested on: T47D
# TK-10 = tested on: TK-10
# UACC-257 = tested on: UACC-257
# UACC-62 = tested on: UACC-62
# A498 = tested on: A498
# ACHN = tested on: ACHN
# Hs-578T = tested on: Hs-578T
# NCI-H460 = tested on: NCI-H460
# NCI-H522 = tested on: NCI-H522
# OVCAR-3 = tested on: OVCAR-3
# OVCAR-5 = tested on: OVCAR-5
# SK-MEL-2 = tested on: SK-MEL-2
# HCT-116 = tested on: HCT-116
# NCI-H226 = tested on: NCI-H226
# UO-31 = tested on: UO-31
smiles,measurement,setting,value
CC1=C2CN(C(=O)OCC(C)C)CCC2C2=C(C(=O)c3ccccc3C2=O)C1C (centres undefined),GI50,786-0,> 10 µM (inactive)
same,GI50,A549,> 10 µM (inactive)
same,GI50,CAKI-1,> 10 µM (inactive)
same,GI50,CCRF-CEM,> 10 µM (inactive)
same,GI50,COLO 205,> 10 µM (inactive)
same,GI50,DU-145,> 10 µM (inactive)
same,GI50,EKVX,> 10 µM (inactive)
same,GI50,HCC 2998,> 10 µM (inactive)
same,GI50,HCT-15,> 10 µM
same,GI50,HL-60,> 10 µM (inactive)
same,GI50,HOP-62,> 10 µM (inactive)
same,GI50,HOP-92,> 10 µM (inactive)
same,GI50,HT-29,> 10 µM (inactive)
same,GI50,IGROV-1,> 10 µM (inactive)
same,GI50,K562,> 10 µM (inactive)
same,GI50,KM12,> 10 µM (inactive)
same,GI50,LOX IMVI,> 10 µM (inactive)
same,GI50,M14,> 10 µM (inactive)
same,GI50,MCF7,> 10 µM (inactive)
same,GI50,MDA-MB-231,> 10 µM (inactive)
same,GI50,MDA-MB-435,> 10 µM (inactive)
same,GI50,MDA-N,> 10 µM (inactive)
same,GI50,MOLT-4,> 10 µM (inactive)
same,GI50,Malme-3M,> 10 µM (inactive)
same,GI50,NCI-H23,6.53 µM (inactive)
same,GI50,OVCAR-4,> 10 µM (inactive)
same,GI50,OVCAR-8,> 10 µM (inactive)
same,GI50,PC-3,> 10 µM (inactive)
same,GI50,RPMI-8226,> 10 µM (inactive)
same,GI50,RXF 393,> 10 µM (inactive)
same,GI50,SF-268,> 10 µM (inactive)
same,GI50,SF-295,> 10 µM (inactive)
same,GI50,SK-MEL-28,> 10 µM (inactive)
same,GI50,SK-MEL-5,> 10 µM (inactive)
same,GI50,SK-OV-3,> 10 µM (inactive)
same,GI50,SN12C,> 10 µM (inactive)
same,GI50,SNB-75,> 10 µM (inactive)
same,GI50,SR,> 10 µM (inactive)
same,GI50,SW-620,> 10 µM (inactive)
same,GI50,T47D,> 10 µM (inactive)
same,GI50,TK-10,> 10 µM (inactive)
same,GI50,UACC-257,> 10 µM (inactive)
same,GI50,UACC-62,> 10 µM (inactive)
O=C1c2scc(-c3ccc(Cl)cc3)c2-n2cccc21,GI50,A498,1.11 µM (active)
same,GI50,A549,> 100 µM (inactive)
same,GI50,ACHN,> 100 µM (inactive)
same,GI50,CCRF-CEM,> 100 µM (inactive)
same,GI50,COLO 205,> 100 µM (inactive)
same,GI50,DU-145,> 100 µM (inactive)
same,GI50,EKVX,2.47 µM (inactive)
same,GI50,HCC 2998,> 100 µM (inactive)
same,GI50,Hs-578T,1.95 µM (inactive)
same,GI50,IGROV-1,3.17 µM (inactive)
same,GI50,K562,3.93 µM (inactive)
same,GI50,KM12,5.25 µM (inactive)
same,GI50,LOX IMVI,> 100 µM (inactive)
same,GI50,M14,50.5 µM (inactive)
same,GI50,MDA-MB-231,14 µM (inactive)
same,GI50,MDA-MB-435,8.04 µM (inactive)
same,GI50,MDA-N,8.65 µM (inactive)
same,GI50,MOLT-4,73.3 µM (inactive)
same,GI50,Malme-3M,> 100 µM (inactive)
same,GI50,NCI-H460,> 100 µM (inactive)
same,GI50,NCI-H522,2.98 µM (inactive)
same,GI50,OVCAR-3,> 100 µM (inactive)
same,GI50,OVCAR-5,> 100 µM (inactive)
same,GI50,PC-3,> 100 µM (inactive)
same,GI50,RPMI-8226,> 100 µM (inactive)
same,GI50,RXF 393,> 100 µM (inactive)
same,GI50,SF-295,> 100 µM (inactive)
same,GI50,SK-MEL-28,> 100 µM (inactive)
same,GI50,SK-MEL-2,> 100 µM (inactive)
same,GI50,SK-MEL-5,> 100 µM (inactive)
same,GI50,SK-OV-3,> 100 µM (inactive)
same,GI50,SNB-75,2.4 µM (inactive)
same,GI50,SR,2.84 µM (inactive)
same,GI50,SW-620,> 100 µM (inactive)
same,GI50,T47D,> 100 µM (inactive)
same,GI50,UACC-257,> 100 µM (inactive)
same,GI50,UACC-62,7.13 µM (inactive)
CC1OC(O[C@H]2/C=C/C=C/C=C/C=C/C=C/C=C/C=C/[C@H](C)[C@@H](O)[C@@H](C)[C@H](C)OC(=O)C[C@H](O)C[C@H](O)CC[C@@H](O)[C@H](O)C[C@H](O)C[C@]3(O)C[C@H](O)[C@@H](C(=O)O)[C@H](C2)O3)C(O)C(N)C1O (some centres undefined),GI50,786-0,4.4 µM (inactive)
same,GI50,CCRF-CEM,6.15 µM (inactive)
same,GI50,COLO 205,24.3 µM (inactive)
same,GI50,HCC 2998,28.5 µM (inactive)
same,GI50,HCT-116,24.3 µM (inactive)
same,GI50,HOP-92,32.2 µM (inactive)
same,GI50,HT-29,21.8 µM (inactive)
same,GI50,Hs-578T,9.25 µM (inactive)
same,GI50,IGROV-1,10 µM (inactive)
same,GI50,K562,60.4 µM (inactive)
same,GI50,KM12,20.5 µM (inactive)
same,GI50,MCF7,20.5 µM (inactive)
same,GI50,MDA-N,7.69 µM (inactive)
same,GI50,NCI-H226,> 100 µM (inactive)
same,GI50,NCI-H522,8.87 µM (inactive)
same,GI50,OVCAR-3,15.9 µM (inactive)
same,GI50,OVCAR-4,18.2 µM (inactive)
same,GI50,PC-3,16.3 µM (inactive)
same,GI50,RXF 393,5.64 µM (inactive)
same,GI50,SK-MEL-2,36.7 µM (inactive)
same,GI50,SK-OV-3,37.3 µM (inactive)
same,GI50,SR,2.35 µM (inactive)
same,GI50,SW-620,11.6 µM (inactive)
same,GI50,UO-31,1.79 µM (inactive)
